US20030148970A1, “Methods for specifically inhibiting histone deacetylase-4” (priority 2001, published 2003)

Assays:
[1] = test system: A549; assay: Cell Death Detection ELISA apoptosis, A549; format: cell-based, human; conditions: 48 Hour Treatment; TSA at 100 ng/ml
Description: (§1) In order to determine the effect of HDAC OSDNs on cell growth and cell death through apoptosis, A549 or T24 cells, MDAmb231 cells, and HMEC cells (ATCC, Manassas, Va.) were treated with HDAC OSDNs as previously described.
(§2) For the apoptosis study, cells were analyzed using the Cell Death Detection ELISA Plus kit (Roche Diagnostic GmBH, Mannheim, Germany) according to the manufacturer's directions. Typically, 10,000 cells were plated in 96-well tissue culture dishes for 2 hours before harvest and lysis. Each sample was analyzed in duplicate. ELISA reading was done using a MR700 plate reader (DYNEX Technology, Ashford, Middlesex, England) at 410 nm. The reference was set at 490 nm.

[2] = test system: T24; assay: Cell Death Detection ELISA apoptosis, T24; format: cell-based, human; conditions: 48 Hour Treatment; TSA at 100 ng/ml
Description: as §1, §2

[3] = test system: MDAmb231; assay: Cell Death Detection ELISA apoptosis, MDAmb231; format: cell-based, human; conditions: 48 Hour Treatment; TSA at 100 ng/ml
Description: as §1, §2

[4] = test system: HMEC; assay: Cell Death Detection ELISA apoptosis, HMEC; format: cell-based, human; conditions: 48 Hour Treatment; TSA at 100 ng/ml; normal cells
Description: as §1, §2

[5] = test system: human HDAC-2 RNA; assay: antisense ODN screen in T24 cells, Northern blot, HDAC-2; format: cell-based; conditions: 100 nM, 24 hours
Description: Twenty-four phosphorothioate ODNs containing sequences complementary to the 5′ or 3′ UTR of the human HDAC-2 gene (GenBank Accession No. U31814) were screened as above. […] HDAC-2 MM was created as a control; compared to the antisense oligo, it contains a 7-base mismatch.
(§3) Briefly, human A549 and/or T24 human bladder carcinoma cells were seeded in 10 cm tissue culture dishes one day prior to oligonucleotide treatment. The cell lines were obtained from the American Type Culture Collection (ATCC) (Manassas, Va.) and were grown under the recommended culture conditions. Before the addition of the oligonucleotides, cells were washed with PBS (phosphate buffered saline). Next, lipofectin transfection reagent (GIBCO BRL Mississauga, Ontario, Calif.), at a concentration of 6.25 μg/ml, was added to serum free OPTIMEM medium (GIBCO BRL, Rockville, Md.), which was then added to the cells. The oligonucleotides to be screened were then added directly to the cells (i.e., one oligonucleotide per plate of cells). Mismatched oligonucleotides were used as controls. The same concentration of oligonucleotide (e.g., 50 nM) was used per plate of cells for each oligonucleotide tested.
(§4) Cells were harvested, and total RNAs were analyzed by Northern blot analysis. Briefly, total RNA was extracted using RNeasy miniprep columns (QIAGEN). […]

[6] = test system: human HDAC-2 protein; assay: Western blot of HDAC-2 protein in A549 cells; format: cell-based; conditions: 50 nM, 48 hours
Description: (§5) OSDN treatment conditions were as previously described.
(§6) Cells were lysed in buffer containing 1% Triton X-100, 0.5% sodium deoxycholate, 5 mM EDTA, 25 mM Tris-HCl, pH 7.5, plus protease inhibitors. Total protein was quantified by the protein assay reagent from Bio-Rad (Hercules, Calif.). 100 ug of total protein was analyzed by SDS-PAGE. Next, total protein was transferred onto a PVDF membrane and probed with various HDAC-specific primary antibodies. Rabbit anti-HDAC-1 (H-51), anti-HDAC-2 (H-54) antibodies (Santa Cruz Biotechnologies, Santa Cruz, Calif.) were used at 1:500 dilution. Rabbit anti-HDAC-3 antibody (Sigma, St. Louis, Mo.) was used at a dilution of 1:1000. Anti-HDAC-4 antibody was prepared as previously described (Wang, S. H. et al., (1999) Mol. Cell. Biol. 19:7816-27), and was used at a dilution of 1:1000. Anti-HDAC-6 antibody was raised by immunizing rabbits with a GST fusion protein containing a fragment of HDAC-6 protein (amino acid #990 to #1216, GenBank Accession No. AAD29048). Rabbit antiserum was tested and found only to react specifically to the human HDAC-6 isoform. HDAC-6 antiserum was used at 1:500 dilution in Western blots to detect HDAC-6 in total cell lysates. Horse Radish Peroxidase conjugated secondary antibody was used at a dilution of 1:5000 to detect primary antibody binding. […]

[7] = test system: human cancer cells; assay: cell growth analysis (trypan blue) and apoptosis, cancer cells; format: cell-based; conditions: 50 nM
Description: as §1, §2
Cells were harvested and cell numbers counted by trypan blue exclusion using a hemocytometer. Percentage of inhibition was calculated as (100-AS cell numbers/control cell numbers)%.

[8] = test system: p21 mRNA; assay: RNase protection assay, p21 in A549; format: cell-based, human; conditions: TSA 250 ng/ml, 16 hours
Description: (§7) As a control, A549 cells were treated by lipofectin with or without TSA (250 ng/ml) treatment for 16 hours. These RNase protection assays were done according to the following procedure. Total RNA from cells was prepared using “RNeasy miniprep kit” from QIAGEN following the manufacturer's manual. Labeled probes used in the protection assays were synthesized using “hStress-1 multiple-probe template sets” from Pharmingen (San Diego, Calif., U.S.A.) according to the manufacturer's instructions. Protection procedures were performed using “RPA II™ Ribonuclease Protection Assay Kit” from Ambion, (Austin, Tx.) following the manufacturer's instructions. Quantitation of the bands from autoradiograms was done by using Cyclone™ Phosphor System (Packard Instruments Co. Inc., Meriden, Conn.).

[9] = test system: GADD45 mRNA; assay: RNase protection assay, GADD45 in A549; format: cell-based, human; conditions: TSA 250 ng/ml, 16 hours
Description: as §7

[10] = test system: Bax mRNA; assay: RNase protection assay, Bax in A549; format: cell-based, human; conditions: TSA 250 ng/ml, 16 hours
Description: as §7

[11] = test system: mammalian HDAC; conditions: Yoshida et al. 1990; cited from earlier work
[12] = test system: murine erythroleukemia cells; conditions: Yoshida et al. 1987; cited from earlier work
[13] = test system: human HDAC-3 RNA; assay: antisense ODN screen in T24 cells, Northern blot, HDAC-3; format: cell-based; conditions: 100 nM, 24 hours
Description: Twenty-one phosphorothioate ODNs containing sequences complementary to the 5′ or 3′ UTR of the human HDAC-3 gene (GenBank Accession No. AF039703) were screened as above. […] HDAC-3 MM oligo was created as a control; compared to the antisense oligo, it contains a a 6-base mismatch.
as §3, §4

[14] = test system: human HDAC-3 protein; assay: Western blot of HDAC-3 protein in A549 cells; format: cell-based; conditions: 50 nM, 48 hours
Description: as §5, §6

[15] = test system: human HDAC-6 RNA; assay: antisense ODN screen in T24 cells, Northern blot, HDAC-6; format: cell-based; conditions: 100 nM, 24 hours
Description: Thirteen phosphorothloate ODNs containing sequences complementary to the 5′ or 3′ untranslated regions of the human HDAC-6 gene (GenBank Accession No. AJ011972) were screened as above. […] HDAC-6 MM oligo was created as a control; compared to the antisense oligo, it contains a 7-base mismatch.
as §3, §4

[16] = test system: human HDAC-6 protein; assay: Western blot of HDAC-6 protein in A549 cells; format: cell-based; conditions: 50 nM, 48 hours
Description: as §5, §6

Row | fold induction of transcription, p21, A549, TSA vs lipofectin [8] [fold] | fold induction of transcription, GADD45, A549, TSA vs lipofectin [9] [fold] | fold induction of transcription, Bax, A549, TSA vs lipofectin [10] [fold] | Molecule | Apoptosis, A549 [1] | Apoptosis, T24 [2] | Apoptosis, MDAmb231 [3] | Apoptosis, HMEC [4] | antisense activity, HDAC-2 RNA expression [5] | expression of HDAC-2 protein [6] | effect on cancer cell growth and apoptosis [7] | inhibition of mammalian HDAC [11] | induction of differentiation in murine erythroleukemia cells [12] | antisense activity, HDAC-3 RNA expression [13] | expression of HDAC-3 protein [14] | antisense activity, HDAC-6 RNA expression [15] | expression of HDAC-6 protein [16]
1 |  |  |  | HDAC-2 AS: 5′-GCTGAGCTGTTCTGATTTGG-3′, antisense to human HDAC2 3′-UTR, U31814 (chemistry not given here) | − (“−”: <= 2× fold over non-specific background) | − (“−”: <= 2× fold over non-specific background) | − (“−”: <= 2× fold over non-specific background) | − (“−”: <= 2× fold over non-specific background) | antisense activity to human HDAC-2 | specifically inhibits the expression of the respective HDAC isotype protein | minimal effect on cancer cell growth inhibition |  |  |  |  |  | 
2 | 2.8 | 0.6 | 0.8 | CC(/C=C/C(=O)NO)=C\[C@@H](C)C(=O)c1ccc(N(C)C)cc1 [TSA, (R)-Trichostatin A] | ++ (“++”: 3-5× fold) | ++ (“++”: 3-5× fold) | ++ (“++”: 3-5× fold) | + (“+”: 2-3× fold) |  |  |  | potent inhibitor of mammalian HDAC | potent inducer of differentiation |  |  |  | 
3 |  |  |  | HDAC-3 AS: 5′-CGCTTTCCTTGTCATTGACA-3′, antisense to human HDAC3 3′-UTR, AF039703 (chemistry not given here) | − (“−”: <= 2× fold over non-specific background) | − (“−”: <= 2× fold over non-specific background) | − (“−”: <= 2× fold over non-specific background) | − (“−”: <= 2× fold over non-specific background) |  |  | no effect on cancer cell growth or apoptosis |  |  | antisense activity to human HDAC-3 | specifically inhibits the expression of the respective HDAC isotype protein |  | 
4 |  |  |  | HDAC-6 AS: 5′-CAGGCTGGAATGAGCTACAG-3′, antisense to human HDAC6 3′-UTR, AJ011972 (chemistry not given here) | − (“−”: <= 2× fold over non-specific background) | − (“−”: <= 2× fold over non-specific background) | − (“−”: <= 2× fold over non-specific background) | − (“−”: <= 2× fold over non-specific background) |  |  | no effect on cancer cell growth or apoptosis |  |  |  |  | antisense activity to human HDAC-6 | specifically inhibits the expression of the respective HDAC isotype protein
